The record followed here is patent publication US20260207621A1 (Vividion Therapeutics, Inc., priority 2022, published 2026).

For test [1], the target named is T1, KEAP1 C151 (Homo sapiens, UniProt Q14145).
T1 construct: treating 500 μg of cell lysate generated from MDA-MB-468 breast cancer cells with DMSO or compound; endogenous in cells; host or cells: MDA-MB-468 breast cancer cell lysate
Description: Nrf2 TMT measurement: in vitro TE50 for KEAP1 C151 (IA-DTB competition, targeted TMT mass spectrometry) in MDA-MB-468 cell lysate. The following applies: in vitro target engagement of KEAP1 C151, targeted TMT, read-out: KEAP1_C151 TE50. It counts as binding. Here is the method:
In vitro TE50 values for KEAP_C151 were obtained by treating 500 μg of cell lysate generated from MDA-MB-468 breast cancer cells with DMSO or compound for 1 hour at room temperature followed by the addition of 200 μM IA-DTB (in DMSO) for one hour at room temperature. Samples were then precipitated by the addition of 8× ice cold acetonitrile and incubated at −80° C. for two hours. Protein was then pelleted by centrifugation (4,200 RPM, 45 min, 4° C.). The pelleted material was resuspended in 9M Urea, 50 mM ammonium bicarbonate and proteins were reduced and alkylated by the addition of DTT and iodoacetamide (10 and 30 mM, respectively). Following reduction and alkylation, samples were exchanged into 2M urea (Zeba spin desalting plates, Thermo Fisher) and digested with Trypsin. IA-DTB labeled peptides were isolated with streptavidin agarose resin. Enriched peptides were eluted by the addition of 50% acetonitrile (ACN) 0.1% Formic Acid (FA) and dried in a SpeedVac vacuum concentrator.
Dried peptides were resuspended in 0.2 M EPPS pH 8.5 and treated with 6.5 μL of 11-plex tandem mass tag (TMT) (8.3 μg/μL in dry ACN) for 2 hours at room temperature. Reactions were quenched by the addition of 6.5 μL of 5% Hydroxylamine. Samples were then combined and desalted on a Biotage Evolute express ABN plate (600-0010-PX01).
Targeted TMT. Targeted TMT measurements were collected using an Orbitrap LumosTribrid Mass Spectrometer (Thermo Scientific) coupled to an UltiMate 3000 Series Rapid Separation LC system and autosampler (Thermo Scientific Dionex). Peptides were eluted onto a custom C18 capillary analytical column (75-μm inner diameter fused silica, packed with Acclaim PepMap C18 resin (Thermo Scientific)) using an Acclaim PepMap 100 (Thermo 164535) loading column, and separated at a flow rate of 1.0 μl min−1. Data were acquired using a specific MS3-based TMT method targeting the peptide containing KEAP1 C151 (C(+324.2)[…], +3 charge state) where MS2 peptide fragmentation is triggered upon detection of the peptide precursor ion. Subsequent MS3 analysis was then performed using pre-selected peptide fragment ions that were isolated for fragmentation using synchronous precursor selection. RAW files were converted to MZXML format and searched with the SEQUEST algorithm using the MassPike software package. TMT quantitation was performed with a filter requiring at least ten summed signal-to-noise for control channels. Quantified signals were used for dose response curve-fitting and IC50 calculation using R's drc package.

The test system of test [2] is Nrf2. The test can be described thus: Nrf2 antagonism assay: ARE luciferase reporter in KYSE-70 cells. The class given is cell-based. Conditions: positive Imax corresponds to Nrf2 antagonism; for Emax: Homo sapiens, KYSE-70, KYSE-70 cells, read-out: KYSE70 Cellular ARE Luciferase Imax (%). The essentials:
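KYSE-70 esophageal squamous carcinoma cells carrying Nrf2 W24C (constitutively Nrf2-high) with an ARE-driven luciferase reporter. Loss of luciferase signal reflects Nrf2 antagonism via KEAP1 C151 engagement. IC50 and Imax come from dose-response curves; positive Imax means antagonism.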

T1 sequence (Q14145 whole entry): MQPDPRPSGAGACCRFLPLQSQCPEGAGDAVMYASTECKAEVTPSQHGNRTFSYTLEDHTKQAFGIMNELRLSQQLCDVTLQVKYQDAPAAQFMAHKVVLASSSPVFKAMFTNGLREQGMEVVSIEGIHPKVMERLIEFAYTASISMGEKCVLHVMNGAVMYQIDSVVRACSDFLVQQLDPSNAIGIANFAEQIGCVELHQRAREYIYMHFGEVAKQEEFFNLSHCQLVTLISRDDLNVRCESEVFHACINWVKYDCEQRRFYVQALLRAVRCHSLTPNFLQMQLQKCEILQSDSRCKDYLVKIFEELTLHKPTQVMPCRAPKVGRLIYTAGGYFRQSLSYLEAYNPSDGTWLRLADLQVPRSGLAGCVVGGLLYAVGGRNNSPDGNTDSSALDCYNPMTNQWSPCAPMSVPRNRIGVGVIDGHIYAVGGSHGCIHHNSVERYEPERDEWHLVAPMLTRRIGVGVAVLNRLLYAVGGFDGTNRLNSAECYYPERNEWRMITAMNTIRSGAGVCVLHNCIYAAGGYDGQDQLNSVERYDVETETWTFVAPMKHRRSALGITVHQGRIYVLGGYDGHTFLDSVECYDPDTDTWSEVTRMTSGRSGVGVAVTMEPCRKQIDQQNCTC

Turning to `C=CC(=O)N1CC(C)(C)OC[C@H]1c1cc(Cl)cc(-c2ccnc(N)n2)c1` (single isomer, unassigned) [Compound 148], the IC50 in test [1] is 51 nM. Further, in test [2], the Emax was 93%.
In the same order, the values of `C=CC(=O)N1[C@H](C)COC[C@H]1c1cc(Cl)cc(-c2ccnc(C(N)=O)c2)c1` (single isomer, unassigned) [Compound 134] are 63 nM and 85%.
On to `C=CC(=O)N1CCN(C(C)=O)C[C@H]1c1cc(Cl)cc(-c2nccc(N)n2)c1` (single isomer, unassigned) [Compound 183], for which the IC50 in test [1] worked out at 27 nM. In test [2], the Emax came out at 87%.
Regarding `C=CC(=O)N1CCOC[C@H]1c1cc(Cl)cc(-c2ncc(C)cn2)c1` (single isomer, unassigned) [Compound 101], the IC50 in test [1] worked out at 24 nM. In addition, the Emax in test [2] was 87%.
For `C=CC(=O)N1CCOC[C@H]1c1cc(Cl)cc(-c2nccc(N)n2)c1` (single isomer, unassigned) [Compound 96], the IC50 in test [1] came to 20 nM. The Emax in test [2] worked out at 94%.
As for `C=CC(=O)N1[C@H](C)COC[C@H]1c1cc(Cl)nc(-c2ccnc(N)n2)c1` (single isomer, unassigned) [Compound 144], the IC50 in test [1] was 83 nM. In addition, the Emax in test [2] was 86%.
Consider `C=CC(=O)N1[C@H](C(N)=O)COC[C@H]1c1cc(Cl)nc(-c2cc(N)ncn2)c1` (single isomer, unassigned) [Compound 172], for which the IC50 in test [1] was 20 nM. In addition, the Emax in test [2] is 71%.
For `C=CC(=O)N1CCOC[C@H]1c1cc(Cl)cc(-c2cc(N)on2)c1` (single isomer, unassigned) [Compound 212], the IC50 in test [1] was 69 nM. Besides, the Emax in test [2] came out at 90%.
In the same order, the values of `C=CC(=O)N1CC(C)(C)OCC1c1cc(Cl)nc(-c2cc(N)ncn2)c1` (single isomer, unassigned) [Compound 150, 1-(5-(2-(6-aminopyrimidin-4-yl)-6-chloropyridin-4-yl)-2,2-dimethylmorpholino)prop-2-en-1-one] are 31 nM and 97%.
For `C=CC(=O)N1CCOCC1c1cc(Cl)cc(-c2cccc(C(N)=O)c2F)c1` (single isomer, unassigned) [Compound 73, 3′-(4-acryloylmorpholin-3-yl)-5′-chloro-2-fluoro-[1,1′-biphenyl]-3-carboxamide] the same measures were 56 nM and 74%.
Turning to `C=CC(=O)N1C[C@@H](C)N(C(C)=O)C[C@@H]1c1cc(Cl)cc(-c2ncc(N)cn2)c1` (single isomer, unassigned) [Compound 237], the IC50 in test [1] was 140 nM. For the same compound, the “KYSE70 Cellular ARE Luciferase Imax (%)” value in test [2] (KYSE-70 cells) came to 50%.
Turning to `C=CC(=O)N1CCOC[C@H]1c1cc(Cl)cc(-c2ncc(OC)c(N)n2)c1` [Compound 261, (R)-1-(3-(3-(4-amino-5-methoxypyrimidin-2-yl)-5-chlorophenyl)morpholino)prop-2-en-1-one], the IC50 in test [1] stood at 19 nM. Besides, the Emax in test [2] came to 95%.
Regarding `C=CC(=O)N1CCOCC12COc1c(-c3ccccc3)cc(Cl)cc12` (racemic) [Compound 7, 1-(5-chloro-7-phenyl-2H-spiro[benzofuran-3,3′-morpholin]-4′-yl)prop-2-en-1-one], the IC50 in test [1] was determined as 5260 nM. The Emax in test [2] was found to be 55%.
As to `C=CC(=O)N1CC2(CC2)OCC1c1cc(Cl)cc(-c2ccc(F)c(C(N)=O)c2)c1` (single isomer, unassigned) [Compound 76, 3′-(7-acryloyl-4-oxa-7-azaspiro[2.5]octan-6-yl)-5′-chloro-4-fluoro-[1,1′-biphenyl]-3-carboxamide], in test [1], the IC50 is 24 nM. Moreover, the Emax in test [2] is 90%.
In the same order, the values of `C=CC(=O)N1[C@H](C)COC[C@H]1c1cc(Cl)cc(-c2ccnc(N3CCCC3=O)c2)c1` (single isomer, unassigned) [Compound 18] are 10 nM and 69%.
Consider `C=CC(=O)N1CCOC[C@H]1c1cc(Cl)cc(-c2ncnc(NCCCN(C)C)n2)c1` (single isomer, unassigned) [Compound 221], for which the IC50 in test [1] stood at 280 nM. In addition, in test [2], the Emax was found to be 78%.
Regarding `C=CC(=O)N1CCOC[C@H]1c1cc(Cl)cc(C2CNC(=O)N(C)C2)c1` (single isomer, unassigned) [Compound 216], the IC50 in test [1] was determined as 140 nM. For the same compound, the Emax in test [2] was found to be 86%.
For the compound `C=CC(=O)N1CC2(CCCC2)OCC1(C)c1cc(Cl)cc(-c2ncnc(N)n2)c1` (single isomer, unassigned) [Compound 164, 1-(8-(3-(4-amino-1,3,5-triazin-2-yl)-5-chlorophenyl)-8-methyl-6-oxa-9-azaspiro[4.5]decan-9-yl)prop-2-en-1-one], the IC50 in test [1] worked out at 440 nM. Further, the Emax in test [2] turned out to be 85%.
Regarding `C=CC(=O)N1CCS(=O)(=O)CC1c1cc(Cl)cc(-c2cc[nH]c(=O)c2)c1` (single isomer, unassigned) [Compound 39, 4-(3-(4-acryloyl-1,1-dioxidothiomorpholin-3-yl)-5-chlorophenyl)pyridin-2(1H)-one], the IC50 in test [1] is 49 nM. Also, the Emax in test [2] is 66%.
Take `C=CC(=O)N1CCOC[C@H]1c1cc(Cl)cc(N2CCN=C(N)C2)c1` (single isomer, unassigned) [Compound 244]: the IC50 in test [1] turned out to be 150 nM. The Emax in test [2] came to 81%.
In the same order, the values of `C=CC(=O)N1CC2(CCCC2)OCC1(C)c1cc(Cl)cc(-c2nccc(N)n2)c1` (single isomer, unassigned) [Compound 171, 1-(8-(3-(4-aminopyrimidin-2-yl)-5-chlorophenyl)-8-methyl-6-oxa-9-azaspiro[4.5]decan-9-yl)prop-2-en-1-one] are 350 nM and 72%.
In the same order, the values of `C=CC(=O)N1CCOC[C@H]1c1cc(Cl)cc(-c2ncc(OC)cn2)c1` (single isomer, unassigned) [Compound 103] are 17 nM and 85%.
As to `C=CC(=O)N1CCOCC12COc1c(-c3ccc(F)c(C(N)=O)c3)cc(Cl)cc12` (single isomer, unassigned) [Compound 143, 5-(4′-acryloyl-5-chloro-2H-spiro[benzofuran-3,3′-morpholin]-7-yl)-2-fluorobenzamide], in test [1], the IC50 is 770 nM. In addition, the Emax in test [2] came to 56%.
In the same order, the values of `C=CC(=O)N1CCC(F)(F)CC1c1cc(Cl)cc(-c2ccnc(N)n2)c1` (single isomer, unassigned) [Compound 284, 1-(2-(3-(2-aminopyrimidin-4-yl)-5-chlorophenyl)-4,4-difluoropiperidin-1-yl)prop-2-en-1-one] are 83 nM and 94%.
Turning to `C=CC(=O)N1CCOC[C@H]1c1cc(Cl)cc(-c2ncc(F)cn2)c1` (single isomer, unassigned) [Compound 19], in test [1], the IC50 was 33 nM. Further, in test [2], the Emax was 84%.
With `C=CC(=O)N1CCN(S(C)(=O)=O)C[C@H]1c1cc(Cl)cc(-c2cc[nH]c(=O)c2)c1` (single isomer, unassigned) [Compound 15], the IC50 in test [1] was 22 nM. For the same compound, the Emax in test [2] came to 57%.
For the compound `C=CC(=O)N1CCOC[C@H]1c1cc(Cl)cc(-c2ccnc(N3CCCC3=O)c2)c1` (single isomer, unassigned) [Compound 12], the IC50 in test [1] amounted to 3.9 nM. Moreover, the Emax in test [2] came out at 68%.
Regarding `C=CC(=O)N1[C@H](c2cc(Cl)nc(-c3ccnc(N)n3)c2)COC[C@H]1C(F)F` (single isomer, unassigned) [Compound 203], the IC50 in test [1] stood at 11 nM. Further, the Emax in test [2] came out at 87%.
With `C=CC(=O)N1CCS(=O)(=O)CC1c1cc(Cl)cc(-c2ncc(N)cn2)c1` (single isomer, unassigned) [Compound 207, 1-(3-(3-(5-aminopyrimidin-2-yl)-5-chlorophenyl)-1,1-dioxidothiomorpholino)prop-2-en-1-one], the IC50 in test [1] came out at 45 nM. Further, the Emax in test [2] was 90%.
With `C=CC(=O)N1[C@H](C(=O)NC)COC[C@H]1c1cc(Cl)nc(-c2cc(N)ncn2)c1` (single isomer, unassigned) [Compound 173], in test [1], the IC50 was less than 6.4 nM. Moreover, in test [2], the Emax stood at 86%.
